Results: ChEMBL document CHEMBL4177651, “RNA as a small molecule druggable target” (Bioorg Med Chem Lett, 2017)

Experiments:
[1] = Binding affinity to Aspergillus oryzae RNA TPP riboswitch after 40 hrs by SDS-PAGE analysis; conditions: read-out: Kd(app)
[2] = Binding affinity to 1A1 Bacillus subtilis 179 lysC RNA lysine riboswitch by probing analysis; conditions: read-out: Kd(app)
Quadruplex DNA = test: Binding affinity to biotin-labeled c-Myc Pu22 G-quadruplex DNA (unknown origin) assessed as […] by surface plasmon resonance assay; assay type: nucleic-acid assay
[3] = Inhibition of [gamma-32P]ATP labelled (CUG)4 RNA (unknown origin) binding to recombinant His6-tagged MBNL1N (1 to 272 residues) after 10 -15 mins incubation in presence of tRNA by SDS-PAGE analysis
Hepatitis C virus = test: Antiviral activity against Hepatitis C virus genotype 1b infected in BM4-5 FEO replicon cells after 48 hrs by bright-glo luciferase reporter gene assay; assay type: functional, organism-based, Hepacivirus hominis; conditions: BM4-5, 48 h
[4] = Binding affinity to 1A1 Bacillus subtilis xpt-pbuX RNA guanine riboswitch; conditions: read-out: Kd(app)
[5] = Inhibition of poly(CUG) RNA (unknown origin) splicing expressed in human Hela cells assessed as decrease in toxicity after 24 hrs by WST-1 assay; assay type: cell-based
[6] = Inhibition of poly(CUG) RNA (unknown origin) binding to recombinant N-terminal PL-MBNL1 preincubated for 30 mins followed by protein addition after 1 hr in presence of tRNA by enzyme fragment complementation assay
[7] = Binding affinity to Bacillus subtilis ribD RNA FMN riboswitch after 40 to 48 hrs by SDS-PAGE analysis; conditions: read-out: Kd(app)
[8] = Binding affinity bacterial RNA purine riboswitch sequence by isothermal titration calorimetry; parameters: species or system Bacteria; conditions: read-out: Kd(app)

## Cc1ncc(C[n+]2cccc(CCO)c2C)c(N)n1
[1]
  Kd: 20 nM

## NCCS(=O)(=O)C[C@H](N)C(=O)O
[2]
  Kd: 2500 nM

## Cc1ccc(NC(=O)c2c(C)oc3ccc(O)c(CN4CCCCCC4)c23)cc1
Quadruplex DNA
  Kd: 4500 nM

## COc1ccc2nc3cc(Cl)ccc3c(NCCCCNc3nc(N)nc(N)n3)c2c1
[3]
  Ki: 52000 nM

## CC(=O)c1ccc(C(=O)N[C@@H](CCCCN)C(=O)N2C[C@H](N)C[C@H](N)C2)cc1
Hepatitis C virus
  IC50: 10000 nM

## ONc1ncnc2[nH]cnc12
[4]
  Kd: 20 nM

## Nc1cccc(-c2nc3cc(-c4ccc5[nH]c(-c6cccc(N)c6)nc5c4)ccc3[nH]2)c1
[5]
  Ki: 50000 nM

## CN(C(=O)[C@@H]1CCCN1C(=O)c1ccc2c(c1)OCO2)[C@@H](CS)C(=O)N[C@@H](CCCCN)C(=O)NCCCN
[6]
  Ki: 3000 nM

## Cc1cc2nc3c(=O)[nH]c(=O)nc-3n(C[C@@H](O)[C@@H](O)[C@@H](O)CO)c2cc1N(C)C
[7]
  Kd: 100 nM

## O=C(Nc1ccc(-c2nc3ccccc3[nH]2)cc1)c1ccc(-c2ccc(Cl)cc2)o1
[5]
  Ki: 128000 nM

## Nc1nc(N)c2nc[nH]c2n1 [2,6-DIAMINOPURINE]
[8]
  Kd: 4 nM
